Measurements from patent US4731363A, “Thromboxane synthase inhibitors as insulin lowering agents and antiobesity agents” (priority 1986, dated 1988).
Values joined by “and” are separate entries in the source; they are usually repeats but may differ in a detail not shown here. Equal entries are not always repeated.

Tests used:
[1] = target: T1, thromboxane synthase (Human Platelet Microsomes) (Homo sapiens, UniProt P24557); experiment: Thromboxane synthase inhibition, human platelet microsomes; assay type: biochemical; details: enzyme source H = Human Platelet Microsomes; read-out: IC50
T1 construct: Platelets were obtained from 320 ml of whole blood and resuspended in 5.0 ml of Krebs-Hensleit buffer; from tissue; host or cells: human platelets (microsomes, 110,000 g pellet)
T1 sequence (P24557 1-533): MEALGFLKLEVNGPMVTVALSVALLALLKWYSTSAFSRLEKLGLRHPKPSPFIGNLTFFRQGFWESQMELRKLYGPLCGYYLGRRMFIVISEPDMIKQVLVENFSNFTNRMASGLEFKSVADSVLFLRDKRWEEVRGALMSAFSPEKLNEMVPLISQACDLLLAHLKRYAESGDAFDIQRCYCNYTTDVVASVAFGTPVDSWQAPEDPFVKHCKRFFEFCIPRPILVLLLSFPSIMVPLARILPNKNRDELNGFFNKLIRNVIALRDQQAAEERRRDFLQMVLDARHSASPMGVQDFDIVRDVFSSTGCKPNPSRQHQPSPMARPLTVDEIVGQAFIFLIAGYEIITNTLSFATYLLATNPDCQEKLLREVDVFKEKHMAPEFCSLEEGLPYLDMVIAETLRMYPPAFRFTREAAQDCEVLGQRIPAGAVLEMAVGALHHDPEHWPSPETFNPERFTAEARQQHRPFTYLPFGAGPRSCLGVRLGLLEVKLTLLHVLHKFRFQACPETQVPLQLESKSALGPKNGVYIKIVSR
Protocol: (§1) In said assay procedure, microsomes from guinea pig lung or human platelets are added to an endoperoxide intermediate in prostaglandin biosynthesis and the inhibitor in phosphate buffer solution followed by incubation, extraction and determination of the extent of thromboxane synthase inhibition by TLC with radiochromatographic profile analysis.
(§2) Determination of Inhibition of Thromboxane Synthase Activity Isolation of Human Platelet Microsomes
Platelets were obtained from 320 ml of whole blood and resuspended in 5.0 ml of Krebs-Hensleit buffer (CA^+2 free). After three consecutive freeze-thawing cycles, homogenization and centrifugation at 12,000 g for 45 min., the 12,000 supernatant was recentrifuged at 110,000 g for 60 min. The resultant pellet was resuspended in phosphate buffer (0.5 ml, 0.1M, pH 7.5) and stored at -70° until use.
(§3) Low specific activity PGH2 (3.3 μCi/μmole) was obtained from Dr. W. E. M. Lands of the University of Michigan. PGH2 of higher specific activity (16.0 μCi/μmole) was purchased from Ran Biochemicals, Tel-Aviv, Israel.
(§4) The inhibitors tested were prepared as solutions (1-10 mg/ml) in 95% ethanol.
(§5) Assay for Thromboxane Synthase
(§6) To a 12×75 mm tube containing [1-^14 C] PGH2 (2 μg, 0.01 μCi or 0.05 μCi) and inhibitor (1 mM final assay concentration, in 10 μl of ethanol) in 225 μl of phosphate buffer (0.1M, pH 7.5), was added to an aliquot of guinea pig lung microsomes (25 μl, containing 400 μg protein) or an aliquot of human platelet microsomes (25 μl, containing .congruent.[…] protein). The solution was incubated in a 22° water bath for 2 min.; ether (1 ml) and citric acid (25 μMoles) were added, and the tube plunged into an acetone-dry ice bath. The ether extract was transferred to a 1.0 ml Reacti-vial, and the volume reduced under nitrogen to .congruent.50 μl.
(§7) The extract was applied to an I.T.L.C., type SG, glass fiber sheet (Gelman Instrument Co., Ann Arbor, Mich.) and developed in isooctane; methyl ethyl ketone: acetic acid (100:19:1 or 100:9:1) (19). The sheets were air dried and scanned using a Berthold LB 2760 Radiochromatographic Scanner. In certain cases, based on the radiochromatographic profile obtained, the sheets were cut, the appropriate regions placed in scintillation vials, 10 ml of LSC cocktail (Yorktown Research, S. Hackensack, NJ) added, and the relative cpm determined.

obese Zucker rats = experiment: Antiobesity activity in vivo in obese Zucker rats; parameters: species or system rat; details: 16 to 18 days; for Body Weight Gain: treated minus control
Protocol: Determination of Antiobesity Activity
Thromboxane synthase inhibitors were evaluated for antiobesity activity in vivo. Body weight, food intake and circulating insulin levels were monitored during periods of drug treatment. Analysis of carcass composition was performed at study termination.
Animals, Diets and Drug Administration
Lean and obese male and female Zucker rats bred at Hoffmann-La Roche Inc. (Nutley, NJ) were kept in wire-bottomed individual cages in light (12 hr dark and light cycles beginning at 6 p.m. and 6 a.m., respectively) and temperature-controlled (22°) rooms. All rats were fed chow diet (Ralston Purina Co., St. Louis, MO) ad libitum until one to three weeks before the start of drug treatment, at which time they were trained to consume a high glucose low fat (1% corn oil) diet which is herein referred to as G-70:1% CO. Following the one to three-week training period on G-70:1% CO, the average daily food intake was calculated, and the rats were weighed and divided into groups of four to seven rats each.
The control animals continued to eat the G-70:1% CO diet ad libitum, and the experimental groups were given G-70:1% CO diet containing drug (also fed ad libitum). The amount of drug added to the diet of each experimental group was based on calculations of food consumed per kg body weight using data collected at the end of the training period. […] The period of drug treatment ranged from 16 to 18 days as noted in the legends to the tables and graph. Food intake and body weight were recorded either daily or twice a week throughout the duration of the study. The amount of drug administered was calculated from the food intake per kg body weight for each experimental group. Body weight data are reported as the difference between the body weight gains of control and drug-treated animals. Food intake and insulin data are reported as percent of control.
^a Average duration of treatment was 16 to 18 days.
^b Body weight gain was computed by taking the difference between the
weight gain of treated and control rats.

[2] = tested on: isolated perfused rat pancreas; experiment: Insulin secretion by isolated perfused rat pancreas; parameters: key: insulin AUC ratio: 1st glucose pulse / 2nd pulse with compound; details: 16.7 mM glucose, control 1.0 ± 0.04 (n = 5)
Protocol: Determination of Insulin-Secretory Activity in the Isolated Perfused Rat Pancreas
Pancreata were obtained from young adult female Charles River rats weighing from 200-300 g. The animals were anaesthesized with sodium pentobarbitol (45 mg/kg), injected intraperitoneally, and the pancreas with its intact vasculature was removed and connected to an extracorporeal perfusion apparatus.
The basic perfusion solution contained: 133 mM NaCl, 4.4 mM KCl, 2.5 mM MgSO4, 2.4 mM Ca gluconate, 1.5 mM KH2 PO4, 29.4 mM NaHCO3, 4% dextran and 0.2% bovine serum albumin and glucose as discussed below. The perfusion flow rate was kept constant at 4 ml/min. After a 15-20 min equilibration period, the experimental protocol was begun. The pancreatic effluent was collected in either one or four-minute fractions.
The perfusion was run in the following sequence:
30 min 16.7 mM glucose-internal control
30 min 16.7 mM glucose and test compound
5 min 20 mM arginine-to check pancreas viability
Test compounds were dissolved in 90% ethanol to a concentration of 25 mM and then diluted in the perfusion buffer to the desired concentration. The perfusion effluent was collected in one or four min fractions-the samples were checked immediately, aliquoted for submission to radioimmunoassay and stored at -20° C. until the time of assay. The radioimmunoassay of insulin was carried out by a back-titration method using a pure rat insulin standard.
To assess the inhibitory activity of the test compounds, an inhibition index was calculated. The inhibition index is derived by comparing the insulin secretion response from treated versus nontreated pancreas preparations. For each preparation, a ratio of insulin secretion was calculated from the area under the insulin secretion curve of the first pulse of 16.7 mM glucose divided by the area under the curve of the second pulse of 16.7 mM glucose containing compound.

TXA2 Synthase = experiment: TXA2 synthase IC50 as listed in Table I (enzyme source not stated); assay type: biochemical
Protocol: as §2, §5, §6, §7

[3] = tested on: thromboxane synthase from human platelets; details: highest potency among the imidazole derivatives tested; read-out: I50; cited from earlier work
[4] = target: T2, thromboxane synthase (Guinea Pig Lung Microsomes) (Cavia porcellus, UniProt H0UT36); experiment: biochemical; details: enzyme source G = Guinea Pig Lung Microsomes; read-out: IC50
T2 construct: The lungs were removed, freed of trachea and the majority of blood removed by rinsing the lungs with buffer; from tissue; host or cells: lungs of male guinea pigs (microsomes, 110,000 g pellet)
Protocol: as §1, with “analysis. […]” for “analysis.”
Isolation of Guinea Pig Lung Microsomes
Four male guinea pigs (.congruent.500 g each) were sacrificed by spinal dislocation. The lungs were removed, freed of trachea and the majority of blood removed by rinsing the lungs with buffer (0.1M phosphate pH 7.5) via the pulmonary artery. The lung tissue (18.3 g total wet wt.), was then minced, suspended in three volumes of buffer and homogenized using, initially, a Brinkmann polytron homogenizer and, finally, a glass-teflon tissue grinder. The homogenate was centrifuged at 12,000 g for 1 hr. and the resultant supernatant recentrifuged at 110,000 g for 1 hr. The 110,000 g pellet was taken up in 10 ml of buffer, divided into 5×2 ml aliquots and stored at -70° until use.
as §3, §4, §5, §6, §7

[5] = tested on: thromboxane synthetase (rabbit platelet microsomes); details: result in words; cited from earlier work

T2 sequence (H0UT36 entry or part of it): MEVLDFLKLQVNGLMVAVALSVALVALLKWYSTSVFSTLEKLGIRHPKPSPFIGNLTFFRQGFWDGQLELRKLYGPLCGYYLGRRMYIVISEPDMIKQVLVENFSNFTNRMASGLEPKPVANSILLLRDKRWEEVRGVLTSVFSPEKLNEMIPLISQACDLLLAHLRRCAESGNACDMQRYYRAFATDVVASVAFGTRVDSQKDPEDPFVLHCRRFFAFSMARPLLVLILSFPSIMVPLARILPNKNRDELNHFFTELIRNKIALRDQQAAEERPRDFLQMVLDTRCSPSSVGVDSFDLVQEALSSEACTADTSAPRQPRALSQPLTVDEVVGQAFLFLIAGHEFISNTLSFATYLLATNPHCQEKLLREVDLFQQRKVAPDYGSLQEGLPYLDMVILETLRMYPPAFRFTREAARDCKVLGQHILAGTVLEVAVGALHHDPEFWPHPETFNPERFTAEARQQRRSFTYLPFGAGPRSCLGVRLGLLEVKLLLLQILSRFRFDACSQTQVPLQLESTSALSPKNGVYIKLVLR

## CC(C)Oc1ccc(-n2ccnc2)cc1 [1-[4-(1-methylethoxy)phenyl]-1H-imidazole]
[1]
  IC50: ~10 µM
Obese Zucker rats; 82 mg/kg in diet, P ≤ 0.05
  Food Consumption: 80 ± 2 % of control
  Body Weight Gain: -18 g
Obese Zucker rats; 82 mg/kg in diet, not marked significant
  Insulin: 94 ± 21 % of control
[2]; 100 μM
  Insulin Secretion Inhibition Index: 4
TXA2 Synthase
  IC50: 10 µM

## CC(C)c1ccccc1-n1ccnc1 [1-[2-(1-methylethyl)phenyl]-1H--imidazole]
[1]
  IC50: ~1 µM
[3]
  IC50: ~0.01 µM

## S=C(n1ccnc1)n1ccnc1 [1,1'-carbonothioylbis-1H--imidazole, 1,1'-carbonothioylbis-1H-imidazole]
[2]; 1000 μM
  Insulin Secretion Inhibition Index: 5
[4]
  IC50: 10 to 100 µM
TXA2 Synthase
  IC50: 15 µM

## c1c[nH]cn1 [1H--imidazole, reference compound]
[2]; 100 μM
  Insulin Secretion Inhibition Index: 2
[2]; 1000 μM
  Insulin Secretion Inhibition Index: 3
[4]
  IC50: > 100 µM and < 1000 µM
TXA2 Synthase
  IC50: 600 µM

## c1ccc(C(c2ccccc2)(c2ccccc2)n2ccnc2)cc1 [1-(triphenylmethyl)-1H--imidazole, 1-(triphenylmethyl)-1H-imidazole]
[1]
  IC50: 10 to 100 µM
[2]; 10 μM
  Insulin Secretion Inhibition Index: 2
[4]
  IC50: 10 to 100 µM
TXA2 Synthase
  IC50: 10 to 100 µM

## CC(C)c1[nH]c2ccccc2c1C(=O)c1cccnc1 [[2-(1-methylethyl)-1H-indol-3-yl)]-3-pyridinyl-methanone]
[1]
  IC50: ~1 µM
Obese Zucker rats; 94 mg/kg in diet, not marked significant
  Food Consumption: 89 ± 4 % of control
Obese Zucker rats; 94 mg/kg in diet, P ≤ 0.05
  Body Weight Gain: -17 g
[2]; 100 μM
  Insulin Secretion Inhibition Index: 5
TXA2 Synthase
  IC50: 1 µM

## CCCCCCCCCn1ccnc1 [1-nonyl-1H--imidazole]
[3]
  IC50: ~0.01 µM

## c1ccc2c(Cn3ccnc3)c[nH]c2c1 [3-(1H--imidazol-1-ylmethyl)-1H--indole, 3-(1H-imidazol-1-ylmethyl)-1H-indole]
[1]
  IC50: ~1 µM
Obese Zucker rats; 18 mg/kg in diet, P ≤ 0.05
  Food Consumption: 81 ± 1 % of control
  Insulin: 72 ± 9 % of control
  Body Weight Gain: -24 g
Obese Zucker rats; 55 mg/kg in diet, P ≤ 0.05
  Food Consumption: 63 ± 4 % of control
  Insulin: 12 ± 2 % of control
  Body Weight Gain: -68 g
[2]; 10 μM
  Insulin Secretion Inhibition Index: 1
[2]; 50 μM
  Insulin Secretion Inhibition Index: 13
[2]; 100 μM
  Insulin Secretion Inhibition Index: 32
TXA2 Synthase
  IC50: 1 µM

## c1ccncc1 [pyridine]
[5]
  enzymatic formation of TXB2 from PGH2: inhibition
